Laboratory results from US10532040B2, “Methods of treating cancer with herbacetin” (REGENTS OF THE UNIVERSITY OF MINNESOTA, priority 2011, dated 2020).
Numbering of substitutions follows the chain as printed.

Columns and labels:
ODC = target: T1, ODC (Homo sapiens, UniProt P11926); assay: ODC enzyme assay with recombinant ODC protein; format: biochemical; conditions: in vitro
T1 sequence (P11926 1-461): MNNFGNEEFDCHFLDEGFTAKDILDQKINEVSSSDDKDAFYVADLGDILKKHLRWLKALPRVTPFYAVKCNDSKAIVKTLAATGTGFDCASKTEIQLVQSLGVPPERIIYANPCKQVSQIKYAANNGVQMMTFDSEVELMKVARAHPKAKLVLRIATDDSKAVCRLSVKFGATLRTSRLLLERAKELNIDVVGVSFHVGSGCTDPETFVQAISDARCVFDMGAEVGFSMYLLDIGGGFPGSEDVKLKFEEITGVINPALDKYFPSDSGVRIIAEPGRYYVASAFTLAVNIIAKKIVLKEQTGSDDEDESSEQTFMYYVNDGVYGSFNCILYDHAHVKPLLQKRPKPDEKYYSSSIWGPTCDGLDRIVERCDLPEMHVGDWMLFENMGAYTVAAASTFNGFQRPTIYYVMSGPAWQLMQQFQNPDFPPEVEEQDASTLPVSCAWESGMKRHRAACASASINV
Method: FIGS. 5A-5E. The effect of herbacetin on ODC activity was assessed in (a) DLD-1 and (b) HCT116 colon cancer cells. Cell lysates were incubated for 15 min with reaction buffer and different doses of herbacetin or DFMO and then incubated at 37° C. for 1 h. Herbacetin (c) and kaempferol (d) were modeled as allosteric inhibitors with the ODC crystal structure. (e) The effect of herbacetin or kaempferol on ODC activity was assessed using a human ODC recombinant protein. Each reaction was incubated at 37° C. for 1 h and ODC activity was measured as the release of CO2 from L-[1-C^14] ornithine. Data are represented as means±S.D. of triplicate values. The asterisk (*) indicates a significant difference (p<0.05) between herbacetin-treated samples compared to untreated or kaempferol-treated samples.
(§1) ODC activity was measured as the release of CO2 from L-[1-C^14] ornithine as previously described ([…]).

[1] = target: T2, ODC (WT, D44A, D243A, E384A) (Homo sapiens, UniProt P11926, D44A); assay: activity of ectopically expressed ODC (WT, D44A, D243A, E384A); format: cell-based; conditions: D44A vs D243A, E384A or wildtype ODC
T2 construct: expressed in transfected cells; host or cells: HCT116 colon cancer cells
T2 sequence (P11926 1-461 D44A): T1 sequence (P11926 1-461) with D44A
Method: FIGS. 1A-1H. Herbacetin binds directly to ODC and inhibits ODC activity. (a) Chemical structure of herbacetin, a new allosteric ODC inhibitor. (b) Computer modeling of herbacetin and the ODC protein crystal structure. […] (c, upper panel) Recombinant ODC, (c, lower panel) HCT116 colon cancer cell lysate or (d) ectopically expressed ODC (WT, mutant D44A, D243A and E384A) cells were incubated with herbacetin-conjugated Sepharose 4B beads or with Sepharose 4B beads alone. Proteins were pulled down using anti-Xpress and then analyzed by Western blotting. The effect of herbacetin on ODC activity was assessed using a (e) recombinant ODC protein, (f) HCT116 colon cancer cells, or (g) TPA-treated JB6 mouse skin epidermal cells. (h) The effect of herbacetin on ectopically expressed ODC (WT, D44A, D243A, E384A) activity was measured as the release of CO2 from L-[1-C^14] ornithine. For e-h, data are represented as means±S.D. of values from triplicate experiments and the asterisk (*) indicates a significant difference (p<0.05) between herbacetin- or DFMO-treated samples compared to untreated controls. WB, Western blot.
as §1

[2] = system: activator protein-1 (AP-1); assay: TPA-induced AP-1 reporter activity in JB6 cells; format: cell-based, mouse; conditions: JB6 cells pre-treated 2 h, then TPA 48 h
Method: FIGS. 3A-3H. Anticancer effect of herbacetin. (a) The effect of herbacetin on ODC activity in colon cancer cell lines was measured as the release of CO2 from L-[1-C^14] ornithine. […] (b) The effect of herbacetin and DFMO on the growth of colon cancer cells and (c) TPA-induced JB6 cell growth was compared. Cells were incubated for 72 h and growth was estimated using the MTS assay. (d) The effect of herbacetin on anchorage independent HCT116 colon cancer cell growth and (e) TPA-induced JB6 cell transformation was assessed. Cells were incubated for 2 weeks and then colonies were counted using a microscope and the Image-Pro PLUS (v.6) computer software program. The effect of herbacetin on AP-1 reporter activity in (f) HCT116 colon cancer cells and (g) TPA-induced AP-1 reporter activity in JB6 mouse epidermal cells was analyzed using the substrates included in the reporter assay system. […] (h) The effect of herbacetin on the phosphorylation of ERK1 and ERK2 in HCT116 colon cancer cells was determined by Western blotting. […]
We determined whether herbacetin affected the reporter activity of the MAP kinase target transcription factor, activator protein-1 (AP-1), in HCT116 cells or JB6 cells stimulated with TPA. […] AP-1 reporter activity was then measured (FIG. 3f, g) and the activity was attenuated by herbacetin in colon cancer cells and in TPA-activated JB6 cells. […]

O=c1c(O)c(-c2ccc(O)cc2)oc2c(O)c(O)cc(O)c12 [herbacetin, 3,5,7,8,4′-Pentahydroxyflavone]
ODC activity (release of CO2 from L-[1-C^14] ornithine) (ODC): inhibited ODC activity similarly | susceptibility of ODC D44A mutant activity to herbacetin [1]: less susceptible | AP-1 reporter activity [2]: attenuated
